# Legend:
# [1] = system: human M17 neuroblastoma cells; assay: MTT cell viability, M17 cells transfected with Aβ1-42 or LacZ; type: cell-based; conditions: Nilotinib 24 hr
# Protocol: Human neuroblastoma M17 or rat B35 cells were grown in 24 well dishes (Falcon). Transient transfection was performed with 3 μg Aβ1-42 cDNA, or 3 μg LacZ cDNA for 24 hr. […] Cells were harvested 48 hr after transfection.
# Parkin levels were measured via ELISA using parkin−/− brain extracts as a specificity control (FIG. 66A).
# [2] = system: molecular markers of autophagy; assay: Western blot of autophagy markers, lentiviral Aβ1-42 parkin−/− mice; type: in vivo, mouse
# [3] = system: autophagic vacuoles and lysosomes; assay: Subcellular fractionation and ELISA, lentiviral Tau±Aβ1-42 mice; type: in vivo, mouse
# Protocol: Brain tissues were fractionated to isolate AVs and human specific ELISA was performed to determine Aβ1-42 contents. […] It was also observed that autophagic clearance is parkin-dependent.
# Brain tissues were fractionated to isolate AVs and mouse specific ELISA was performed to determine protein contents.
# Brain tissues were fractionated to isolate AVs and human specific ELISA was performed to determine protein contents.
# 0.5 g of Frozen human or animal brains were homogenized at low speed (Cole-Palmer homogenizer, LabGen 7, 115 Vac) in 1×STEN buffer and centrifuged at 1,000 g for 10 minutes to isolate the supernatant from the pellet. The pellet was re-suspended in 1×STEN buffer and centrifuged once to increase the recovery of lysosomes. The pooled supernatants were then centrifuged at 100,000 rpm for 1 hour at 4° C. to extract the pellet containing autophagic vacuoles (AVs) and lysosomes. The pellet was then re-suspended in 10 ml (0.33 g/ml) 50% Metrizamide and 10 ml in cellulose nitrate tubes. A discontinuous Metrizamide gradient was constructed in layers from bottom to top as follows: 6 ml of pellet suspension, 10 ml of 26%; 5 ml of 24%; 5 ml of 20%; and 5 ml of 10% Metrizamide (Marzella et al., 1982). After centrifugation at 10,000 rpm for 1 hour at 4° C., the fraction floating on the 10% layer (Lysosome) and the fractions banding at the 24%/20% (AV 20) and the 20%/10% (AV10) Metrizamide inter-phases were collected by a syringe and examined.
# Animal brains were homogenized at low speed (Cole-Palmer homogenizer, LabGen 7, 115 Vac) in 1×STEN buffer and centrifuged at 1,000 g for 10 minutes to isolate the supernatant from the pellet. The pellet was re-suspended in 1×STEN buffer and centrifuged once to increase the recovery of lysosomes. The pooled supernatants were then centrifuged at 100.000 rpm for 1 hour at […] to extract the pellet containing autophagic vacuoles (AVs) and lysosomes. The pellet was then re-suspended in 10 ml (0.33 g/ml) 50% Metrizamide and 10 ml in cellulose nitrate tubes. […]
structure (smiles),measurement,setting,value
Cc1cn(-c2cc(NC(=O)c3ccc(C)c(Nc4nccc(-c5cccnc5)n4)c3)cc(C(F)(F)F)c2)cn1 [Nilotinib],cell viability (MTT) after Aβ1-42 induced cell death,[1]; Aβ1-42 expressing cells,83 % of control level
same,cell death (by MTT),[1]; LacZ cells,No cell death
same,Atg12 and Atg5 levels (WB),[2],not changed
same,LC3-II (WB),[2],did not clear
same,"autophagic clearance of p-Tau ser 396, human specific ELISA","[3]; lentiviral Tau±Aβ1-42 mice, 10 mg/kg Nilotinib or 5 mg/Kg Bosutinib daily 3 weeks",enhances autophagic clearance
same,autophagic clearance of Aβ1-42 (deposition in AV-20 and lysosome),"[3]; lentiviral Tau±Aβ1-42 mice, IP 10 mg/kg Nilotinib daily 3 weeks",enhances autophagic clearance
same,"autophagic clearance of p-Tau ser 396, mouse specific ELISA","[3]; lentiviral human Tau±Aβ1-42 mice, IP 10 mg/kg Nilotinib daily 3 weeks",enhances autophagic clearance

# Source: US10709704B2, “Treating neural disease with tyrosine kinase inhibitors” (GEORGETOWN UNIVERSITY, priority 2012, dated 2020)
